Measured values taken from PMC6419571, “Discovery and lead optimisation of a potent, selective and orally bioavailable RARβ agonist for the potential treatment of nerve injury” (Bioorganic & Medicinal Chemistry Letters, 2019).
Marks after values point to notes of the source that are not given here.

Key:
[1] = biological target: T1, RARα (Mus musculus, UniProt P11416); experiment: RAR alpha transactivation assay (gal4-RAR LBD fusion, luciferase reporter, COS-7 cells); assay type: cell-based; settings: mouse RAR ligand binding domain; usually three experiments; read-out: α EC50
T1 construct: expressed in transfected cells; host or cells: COS-7
T1 sequence (P11416 183-417 limits assumed): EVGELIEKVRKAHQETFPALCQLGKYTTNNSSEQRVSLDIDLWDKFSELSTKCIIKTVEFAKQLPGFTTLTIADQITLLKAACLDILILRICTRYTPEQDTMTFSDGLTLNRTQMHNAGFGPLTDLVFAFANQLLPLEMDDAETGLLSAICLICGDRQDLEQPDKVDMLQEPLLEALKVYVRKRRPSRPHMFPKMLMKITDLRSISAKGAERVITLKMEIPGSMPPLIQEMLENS
Method: (§1) Compounds were tested in transactivation assays at the RAR α, β and γ receptors.
(§2) Transactivation assays for RAR alpha, beta and gamma receptors:
(§3) Transcriptional transactivation assays have been performed with gal4 fusion receptor constructs, created using each of the mouse RAR ligand-binding domains, co-transfected with the pFR-luc (Stratagene) reporter construct in COS-7 cells.
(§4) Briefly, on day one, 96 well plates were seeded with 8000 cells per well then left to recover overnight. On day two, the cells were co-transfected with 100ng of reporter plasmid and 10ng of the appropriate receptor plasmid per well using lipofectamine (Invitrogen). On day three, the lipofectamine containing media was replaced by a DMEM without phenol red, followed by the addition of novel compounds dissolved in 1µl of DMSO to each well’s 100µl total volume. Finally, on day four, the cells were lysed and their luciferase substrate was provided by the BrightGlo reagent (Promega), the plates were then read on the MicroBeta TriLux (Perkin Elmer).
(§5) Data for test compounds are quoted as EC50 values. Where replicate data has been generated the data are quoted as the mean EC50 from the separate experiments.

[2] = biological target: T2, RARβ (Mus musculus, UniProt P22605); experiment: RAR beta transactivation assay (gal4-RAR LBD fusion, luciferase reporter, COS-7 cells); assay type: cell-based
T2 construct: expressed in transfected cells; host or cells: COS-7
T2 sequence (P22605 210-444 limits assumed): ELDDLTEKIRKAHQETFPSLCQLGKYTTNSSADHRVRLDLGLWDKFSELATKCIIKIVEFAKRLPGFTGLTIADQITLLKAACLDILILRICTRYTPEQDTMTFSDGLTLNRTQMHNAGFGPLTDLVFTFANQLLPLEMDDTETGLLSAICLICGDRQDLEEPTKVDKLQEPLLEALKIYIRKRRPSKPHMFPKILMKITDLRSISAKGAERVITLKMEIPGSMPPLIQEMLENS
Method: as §1, §2, §3, §4, §5

[3] = biological target: T3, RARγ (Mus musculus, UniProt P18911); experiment: RAR gamma transactivation assay (gal4-RAR LBD fusion, luciferase reporter, COS-7 cells); assay type: cell-based; settings: mouse RAR ligand binding domain; Tables 1 and 4; read-out: γ EC50
T3 construct: expressed in transfected cells; host or cells: COS-7
T3 sequence (P18911 185-419 limits assumed): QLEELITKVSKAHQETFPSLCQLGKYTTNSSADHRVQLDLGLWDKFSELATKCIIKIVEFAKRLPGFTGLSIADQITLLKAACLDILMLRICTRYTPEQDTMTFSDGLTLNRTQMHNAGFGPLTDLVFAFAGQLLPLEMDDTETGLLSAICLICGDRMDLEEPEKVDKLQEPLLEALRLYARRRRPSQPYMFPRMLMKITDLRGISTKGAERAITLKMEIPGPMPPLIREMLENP
Method: as §1, §2, §3, §4, §5

[4] = Solubility; assay type: physicochemical; settings: pH 7.4, as the amorphous sodium salt
[5] = Bi-directional permeability in MDR1-MDCK cell line; assay type: in vitro ADME; settings: dog; MDR1-MDCK cell line
Description: (§6) The potential drug candidate 10 has excellent physico-chemical properties.

[6] = test system: MDR1-MDCK cell line; experiment: Bi-directional permeability in MDR1-MDCK cell line; assay type: in vitro ADME
Description: as §6

[7] = test system: P-gp (MDR1); experiment: Bi-directional permeability in MDR1-MDCK cell line; assay type: in vitro ADME; settings: dog; MDR1-MDCK cell line, bi-directional; read-out: MDCK asymmetry ratio (efflux ratio)
Description: as §6

[8] = biological target: Cyp450 2C9 (Homo sapiens, UniProt P11712); experiment: Cyp450 inhibition, 2C9; assay type: in vitro ADME; settings: isoform 2C9
[9] = biological target: Cyp450 2C19 (Homo sapiens, UniProt P33261); experiment: Cyp450 inhibition, 2C19; assay type: in vitro ADME; settings: isoform 2C19
[10] = biological target: Cyp450 2D6 (Homo sapiens, UniProt P10635); experiment: Cyp450 inhibition, 2D6; assay type: in vitro ADME; settings: isoform 2D6
[11] = biological target: Cyp450 3A4 (Homo sapiens, UniProt P08684); experiment: Cyp450 inhibition, 3A4; assay type: in vitro ADME; settings: isoform 3A4
[12] = Human plasma protein binding; assay type: in vitro ADME
[13] = Mouse plasma protein binding; assay type: in vitro ADME
[14] = Human microsomal stability (Clint); assay type: in vitro ADME
[15] = Pharmacokinetics in rat; assay type: in vivo; design: Volume distribution ss: unit not given here
[16] = Pharmacokinetics in dog; assay type: in vivo; design: Volume distribution ss: unit not given here
[17] = test system: HEPG2 cell; experiment: HEPG2 cell toxicity assay; assay type: cell-based; settings: highest concentration tested 50 μM
[18] = biological target: HERG channels (Homo sapiens, UniProt Q12809); experiment: Binding assay for HERG channels; settings: at 10 μM
[19] = test system: bacterial; experiment: Bacterial cytotoxicity tests; assay type: cell-based; settings: up to 100 μM

Chain of Cyp450 3A4 (P08684 whole entry, canonical isoform): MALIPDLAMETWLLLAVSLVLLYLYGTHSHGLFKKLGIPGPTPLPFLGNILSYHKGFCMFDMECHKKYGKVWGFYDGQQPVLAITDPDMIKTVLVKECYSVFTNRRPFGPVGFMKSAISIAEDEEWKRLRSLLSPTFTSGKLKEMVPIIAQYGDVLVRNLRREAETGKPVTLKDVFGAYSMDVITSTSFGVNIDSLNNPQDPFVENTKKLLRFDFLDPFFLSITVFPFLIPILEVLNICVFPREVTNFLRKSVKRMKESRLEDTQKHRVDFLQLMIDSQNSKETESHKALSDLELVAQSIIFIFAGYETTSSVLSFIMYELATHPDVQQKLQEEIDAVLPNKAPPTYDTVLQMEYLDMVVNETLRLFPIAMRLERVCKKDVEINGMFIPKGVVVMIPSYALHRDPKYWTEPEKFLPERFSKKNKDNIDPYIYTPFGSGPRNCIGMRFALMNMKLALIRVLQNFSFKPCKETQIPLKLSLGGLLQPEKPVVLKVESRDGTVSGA
Chain of Cyp450 2C9 (P11712 whole entry, canonical isoform): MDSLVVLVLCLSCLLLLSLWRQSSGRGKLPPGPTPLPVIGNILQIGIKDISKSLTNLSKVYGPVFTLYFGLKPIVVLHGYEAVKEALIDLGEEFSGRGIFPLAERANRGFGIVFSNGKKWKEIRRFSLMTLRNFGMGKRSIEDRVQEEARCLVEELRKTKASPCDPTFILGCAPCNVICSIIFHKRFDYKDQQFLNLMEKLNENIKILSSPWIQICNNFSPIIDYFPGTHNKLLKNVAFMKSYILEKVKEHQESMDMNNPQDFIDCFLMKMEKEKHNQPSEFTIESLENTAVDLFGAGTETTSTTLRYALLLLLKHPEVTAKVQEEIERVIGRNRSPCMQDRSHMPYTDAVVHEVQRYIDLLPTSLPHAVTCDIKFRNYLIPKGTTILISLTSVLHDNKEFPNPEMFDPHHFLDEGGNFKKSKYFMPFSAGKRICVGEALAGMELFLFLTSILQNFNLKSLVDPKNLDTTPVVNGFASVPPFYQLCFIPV
Chain of Cyp450 2D6 (P10635 whole entry, canonical isoform): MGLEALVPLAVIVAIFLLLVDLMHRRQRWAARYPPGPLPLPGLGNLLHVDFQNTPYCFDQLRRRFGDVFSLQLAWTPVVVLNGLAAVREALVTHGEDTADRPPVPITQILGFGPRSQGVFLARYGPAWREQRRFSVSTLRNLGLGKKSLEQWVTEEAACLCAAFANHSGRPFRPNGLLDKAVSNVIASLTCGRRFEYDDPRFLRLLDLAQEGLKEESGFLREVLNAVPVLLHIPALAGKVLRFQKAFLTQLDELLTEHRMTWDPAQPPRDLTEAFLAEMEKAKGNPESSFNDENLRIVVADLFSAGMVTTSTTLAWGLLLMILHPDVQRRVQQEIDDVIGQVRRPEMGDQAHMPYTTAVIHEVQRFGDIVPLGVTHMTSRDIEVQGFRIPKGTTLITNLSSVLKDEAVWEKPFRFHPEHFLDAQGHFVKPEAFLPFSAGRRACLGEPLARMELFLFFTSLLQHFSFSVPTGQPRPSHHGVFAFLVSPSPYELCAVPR
Chain of Cyp450 2C19 (P33261 whole entry, canonical isoform): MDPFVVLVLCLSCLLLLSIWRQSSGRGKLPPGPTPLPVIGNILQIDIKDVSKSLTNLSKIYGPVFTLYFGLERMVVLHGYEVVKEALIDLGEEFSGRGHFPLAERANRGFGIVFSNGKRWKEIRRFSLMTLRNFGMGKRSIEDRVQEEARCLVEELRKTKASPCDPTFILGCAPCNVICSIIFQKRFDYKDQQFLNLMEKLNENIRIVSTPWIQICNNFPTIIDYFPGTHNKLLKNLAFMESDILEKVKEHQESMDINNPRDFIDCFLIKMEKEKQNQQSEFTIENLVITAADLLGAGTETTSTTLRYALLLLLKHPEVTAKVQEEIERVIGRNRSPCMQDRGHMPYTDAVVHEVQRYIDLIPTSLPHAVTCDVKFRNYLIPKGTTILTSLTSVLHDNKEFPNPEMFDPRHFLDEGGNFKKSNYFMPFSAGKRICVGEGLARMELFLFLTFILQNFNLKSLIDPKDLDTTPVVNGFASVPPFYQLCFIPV
Chain of HERG channels (Q12809 whole entry): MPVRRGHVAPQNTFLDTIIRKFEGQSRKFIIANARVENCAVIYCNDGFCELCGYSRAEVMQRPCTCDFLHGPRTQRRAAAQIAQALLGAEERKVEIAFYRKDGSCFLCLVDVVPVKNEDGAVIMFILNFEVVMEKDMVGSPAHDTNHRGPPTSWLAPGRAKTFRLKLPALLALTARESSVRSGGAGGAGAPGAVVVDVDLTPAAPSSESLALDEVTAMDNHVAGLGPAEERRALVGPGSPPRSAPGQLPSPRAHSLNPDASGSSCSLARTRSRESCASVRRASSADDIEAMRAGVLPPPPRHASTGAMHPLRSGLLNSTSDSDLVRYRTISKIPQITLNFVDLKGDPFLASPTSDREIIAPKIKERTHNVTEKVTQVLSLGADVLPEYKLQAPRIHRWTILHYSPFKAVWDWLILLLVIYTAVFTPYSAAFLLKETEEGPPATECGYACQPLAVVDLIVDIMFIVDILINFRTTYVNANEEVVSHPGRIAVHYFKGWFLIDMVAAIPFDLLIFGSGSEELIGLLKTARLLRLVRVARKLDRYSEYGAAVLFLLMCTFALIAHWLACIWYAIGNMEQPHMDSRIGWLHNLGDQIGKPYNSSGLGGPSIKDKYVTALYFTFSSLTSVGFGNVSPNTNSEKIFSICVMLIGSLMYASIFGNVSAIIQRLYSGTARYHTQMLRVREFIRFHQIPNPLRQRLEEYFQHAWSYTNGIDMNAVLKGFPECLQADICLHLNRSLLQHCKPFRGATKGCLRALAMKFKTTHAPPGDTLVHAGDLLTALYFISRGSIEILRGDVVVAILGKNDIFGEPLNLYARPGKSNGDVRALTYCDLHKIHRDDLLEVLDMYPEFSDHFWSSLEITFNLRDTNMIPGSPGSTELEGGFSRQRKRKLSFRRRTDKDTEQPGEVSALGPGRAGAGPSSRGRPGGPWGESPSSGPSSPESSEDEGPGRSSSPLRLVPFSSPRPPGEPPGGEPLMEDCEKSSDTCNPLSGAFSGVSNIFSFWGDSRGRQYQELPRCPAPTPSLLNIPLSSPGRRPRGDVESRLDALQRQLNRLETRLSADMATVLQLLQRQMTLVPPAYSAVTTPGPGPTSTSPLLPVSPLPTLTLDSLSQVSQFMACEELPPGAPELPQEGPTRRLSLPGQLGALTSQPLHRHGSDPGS

## Cc1ccc(C)c2oc(-c3nc(-c4ccc(C(=O)O)cc4)no3)cc12 [Compound 10, 4-(5-(4,7-dimethylbenzofuran-2-yl)-1,2,4-oxadiazol-3-yl)benzoic acid]
[1]
  EC50: 26 nM
[2]; EC50 ratio of α to β, mouse, Tables 1 and 4
  Fold selectivity for β over α: 13
[2]; EC50 ratio of γ to β, mouse
  Fold selectivity for β over γ: 5.6
[2]; maximum upper asymptote within 20% of that found for ATRA
  agonist behaviour (full/partial) relative to ATRA: full agonist
[2]; mouse RAR ligand binding domain, usually three experiments, read-out: β EC50
  EC50: 1.9 nM
[3]
  EC50: 11 nM
[4]
  solubility: > 100 µM
[5]
  Papp: 28 ×10⁻⁶ cm/s
[6]
  permeability (in words): good permeability
[6]; MDR1-MDCK cell line, bi-directional
  MDCK asymmetry ratio (efflux ratio): close to unity
[7]
  efflux ratio: 0.8
[8]
  IC50: > 25000 nM
[9]
  IC50: > 25000 nM
[10]
  IC50: > 25000 nM
[11]
  IC50: > 25000 nM
[12]
  fraction unbound: 0.02
[13]
  fraction unbound: 0.05
[14]
  stability in human microsomes (in words): very high stability
[14]; human microsomes, 37 °C, NADPH, 45 min, mean of 5 experiments
  microsomal CLint: < 1 µL/min/mg
[15]; blood, rat, iv dose 0.5 mg/kg
  clearance: 3.7 mL/min/kg
[15]; in vivo, rat, oral doses of 1, 3 and 10 mg/kg
  Tmax: 1.7 h
[15]; rat
  t1/2: 1.4 h
[15]; rat, iv dose 0.5 mg/kg
  Volume distribution ss: 0.41
[15]; rat, mean of 1, 3 and 10 mg/kg oral in comparison to iv 0.5 mg/kg
  Fraction absorbed: 80 ^b %
[15]; rats
  oral bioavailability: > 40%
[15]; rats, 8 h after dosing orally
  CNS penetration: brain tissue compared to plasma: nearly equivalent amounts detected in brain tissue when compared to plasma
[16]
  t1/2: 2.5 h
[16]; blood, iv dose 0.5 mg/kg
  clearance: 1.1 mL/min/kg
[16]; in vivo, po, 3 mg/kg, dogs
  bioavailability: > 40%
[16]; iv dose 0.5 mg/kg
  Volume distribution ss: 0.23
[16]; oral 3 mg/kg vs iv 0.5 mg/kg
  Fraction absorbed: 45%
[16]; oral dose 3 mg/kg
  Tmax: 1.0 h
[17]
  HEPG2 cell toxicity alerts: completely devoid of alerts
[18]
  HERG channel binding inhibition: no inhibition
[19]
  bacterial cytotoxicity: inactive
